Where two headings read alike, the source gives them in different places.
Legend:
[1] = system: P. falciparum stage V female gametocytes; assay: P. falciparum female gametocyte activation assay (Pf FGAA), 24 h or 48 h preincubation, Pfs25 expression readout; type: cell-based, Plasmodium falciparum NF54; details: mean, read-out: Gametocytes mean Pf FGAA IC50
Procedure, shortened: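 Female activation, triggered by xanthurenic acid and cooling, was scored by imaging Cy3-labelled anti-Pfs25 female gametes after 24 h at 26 °C. Beforehand, purified NF54 stage V gametocytes had been incubated with compound for either 24 h or 48 h (37 °C, 3% O2). Values are pIC50 from full-curve regression.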

[2] = system: P. falciparum stages IV–V gametocytes; assay: Gametocytocidal ATP-depletion assay (gametocyte ATP bioluminescence); type: cell-based, Plasmodium falciparum
Procedure, shortened: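 Read-out is luciferase luminescence of parasite ATP (BacTiter-Glo), standing in for viability. Double-purified mature stage IV–V gametocytes, 12,500 per well, were exposed 48 h at 37 °C in low-O2 gas; screening concentration 2 μM.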

HepG2 cells = assay: HepG2 cytotoxicity assay; type: cell-based
Procedure, shortened: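 Luminescent read-out (CellTiter-Glo) taken 10 min after reagent addition at RT; plates and reagent pre-equilibrated 30 min at RT.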

[3] = system: P. falciparum asexual blood stages; details: read-out: Pf Asexual blood stages XC50, cited from earlier work
[4] = P. falciparum female gametocytes
[5] = TCAMS asexual blood stage data, ref 1 (Gamo, F. J. et al., Nature 465, 305-310, 2010)
[6] = TCAMS data, ref 1 (Gamo et al., 2010)

Structure (SMILES)	IC50 [1, 4]	Gametocytes mean ATP inhibition at 2µM [2]	HepG2 cells mean TOX50 (HepG2 cells; HepG2 cells; mean)	IC50 [3, 5]	IC50 [1]	Gametocytes mean ATP inhibition at 2µM (%) [2]	HepG2 cells mean TOX50 (HepG2 cells; mean)	IC50 [3, 6]	IC50 ([1]; P. falciparum female gametocyte activation assay)	HepG2 cells mean TOX50 (HepG2 cells; mean; HepG2 cells)
CCN(CC)/C(=N/C(=N)NCc1ccc(Cl)cc1Cl)NCCCCCCN/C(=N\C(=N)NCc1ccc(Cl)cc1Cl)N(CC)CC [TCMDC-131819]	4750 nM	65.32%	36.73 µM	220 nM	–	–	–	–	–	–
CCC1CN2CCc3cc(OC)c(OC)cc3C2CC1CC1NCCc2cc(OC)c(OC)cc21 (centres unmarked) [TCMDC-125849]	1820 nM	60.00%	2.24 µM	150 nM	–	–	–	–	–	–
CCCC(N)C(=O)NC1CCN(c2c(F)c(N)c3c(=O)c(C(=O)O)cn4c3c2Oc2ccccc2-4)C1.Cl (centres unmarked) [TCMDC-125701]	1140 nM	0.82%	1.61 µM	360 nM	–	–	–	–	–	–
CS(=O)(=O)O.FC(F)(F)COc1ccc(CNCCCCCCNCc2ccc(OCC(F)(F)F)c3ccccc23)c2ccccc12 [TCMDC-137853]	–	–	–	–	630 nM	94.02%	2.46 µM	400 nM	–	–
Cl.c1ccc2c(NCCCCCCCCCNc3c4ccccc4nc4ccccc34)c3ccccc3nc2c1 [TCMDC-124286]	1800 nM	51.90%	4.90 µM	300 nM	–	–	–	–	–	–
COc1ccc(-c2csc3ncnc(Cl)c23)cc1 [TCMDC-123805]	1460 nM	-0.54%	0.55 µM	780 nM	–	–	–	–	–	–
CCCOc1c(CCNCCCCNCCc2ccc3ccccc3c2OCCC)ccc2ccccc12.CS(=O)(=O)O [TCMDC-137950]	–	–	–	–	640 nM	95.44%	1.72 µM	480 nM	–	–
CNCCNc1nccc(N2CCc3ncnc(Nc4ccc(OCc5cccc(F)c5)c(Cl)c4)c3C2)n1 [TCMDC-135478]	1670 nM	-9.54%	5.62 µM	200 nM	–	–	–	–	–	–
Br.Oc1ccc(CCNCCCCCCNCCc2ccc(-c3ccccc3)cc2)cc1O [TCMDC-131268]	10900 nM	64.17%	13.18 µM	600 nM	–	–	–	–	–	–
COc1cc2ccccc2cc1CCNCCCCNCCc1cc2ccccc2cc1OC.CS(=O)(=O)O [TCMDC-137944]	–	–	–	–	620 nM	84.04%	1.66 µM	400 nM	–	–
FC(F)(F)c1ccc2[nH]c(-c3ccc(-c4cccc(CN5CCC(CCN6CCCCC6)CC5)c4)cc3)nc2c1.O=C(O)C(F)(F)F [TCMDC-133941]	1260 nM	-7.71%	4.45 µM	150 nM	–	–	–	–	–	–
c1ccc(-c2nc(NC3CCCCC3)cc(C3CC3)n2)nc1 [TCMDC-125825]	160 nM	85.03%	48.99 µM	730 nM	–	–	–	–	–	–
COc1ccccc1-c1nc2c(ccc3nc(N)nc(N)c32)[nH]1 [TCMDC-137976]	–	–	–	–	1130 nM	85.21%	2.87 µM	180 nM	–	–
CN1CCN(CCCN(Cc2cccc(-c3ccc(CNCCc4ccccc4)cc3)c2)C(=O)c2cccs2)CC1.O=C(O)C(F)(F)F [TCMDC-140568]	–	–	–	–	1710 nM	-8.58%	5.98 µM	720 nM	–	–
Cc1ccc(Cn2nc(Cl)c(N3CCCNCC3)cc2=O)cc1NC(=O)Nc1ccc(-c2ccccc2)cc1.O=C(O)C(F)(F)F [TCMDC-141697]	–	-13.94%	–	670 nM	–	–	–	–	990 nM	7.25 µM
NCCCNc1nc(Nc2ccc(C(F)(F)F)cc2F)c2c(=O)[nH]ccc2n1.O=C(O)C(F)(F)F [TCMDC-135056]	1600 nM	-14.04%	9.30 µM	1050 nM	–	–	–	–	–	–
CCOc1cc2ccccc2cc1CNCCCCCCNCc1cc2ccccc2cc1OCC.CS(=O)(=O)O [TCMDC-137940]	–	–	–	–	1290 nM	2.59%	6.06 µM	980 nM	–	–
CC(C)c1ccc(CN2CCC(CNC(=O)c3cc(-c4ccccc4F)cs3)C2)cc1.O=C(O)C(F)(F)F (centres unmarked) [TCMDC-134436]	1080 nM	-11.71%	9.14 µM	990 nM	–	–	–	–	–	–
COc1cc2nc(N3CCC(CNC(=O)c4ccc(-c5ccc(C(F)(F)F)cc5)cc4)CC3)nc(N)c2cc1OC [TCMDC-138716]	–	–	–	–	850 nM	21.96%	4.92 µM	130 nM	–	–
COc1ccc(CNC2Cc3ccccc3C2)cc1-c1ccc(S(=O)(=O)NCCN2CCCC2)cc1.O=C(O)C(F)(F)F [TCMDC-132248]	1990 nM	20.60%	5.89 µM	580 nM	–	–	–	–	–	–
FC(F)(F)c1ccc2[nH]c(-c3cccc(-c4cccc(CNCCN5CCNCC5)c4)c3)nc2c1.O=C(O)C(F)(F)F [TCMDC-132871]	1220 nM	0.88%	6.61 µM	940 nM	–	–	–	–	–	–
CC(C)COc1ccc2ccccc2c1CNCCCCCCNCc1c(OCC(C)C)ccc2ccccc12.CS(=O)(=O)O [TCMDC-137972]	–	–	–	–	810 nM	92.13%	2.19 µM	690 nM	–	–
Cc1cc(N)c2cc(NC(=O)c3cc(C(F)(F)F)cc(C(F)(F)F)c3)ccc2n1.Cl [TCMDC-139377]	–	–	–	–	860 nM	0.86%	2.60 µM	90 nM	–	–
CCN(CC)CCN(Cc1ccc(-c2ccc(C(F)(F)F)cc2)cc1)C(=O)Cn1cc(Cc2cnn(C)c2)c(=O)nc1/C=C/c1ccc(F)cc1.O=C(O)C(O)C(O)C(=O)O [TCMDC-140741]	–	–	–	–	1210 nM	46.80%	13.81 µM	1060 nM	–	–
Cc1ccnc(NC(c2cccc(Cl)c2Cl)c2ccc3cccnc3c2O)c1 (centres unmarked) [TCMDC-123997]	1910 nM	90.58%	45.69 µM	1000 nM	–	–	–	–	–	–
Cl.c1ccc2c(Nc3ccc(Cc4ccc(Nc5c6ccccc6nc6ccccc56)cc4)cc3)c3ccccc3nc2c1 [TCMDC-137354]	–	–	–	–	1040 nM	-29.34%	3.85 µM	160 nM	–	–
CCOc1ccc2nc3cc(NC(=O)c4ccco4)ccc3c(N)c2c1 [TCMDC-125004]	4550 nM	91.77%	25.15 µM	800 nM	–	–	–	–	–	–
Cl.c1ccc2c(NCCCCCCCCNc3ccnc4ccccc34)ccnc2c1 [TCMDC-137751]	–	–	–	–	1020 nM	39.31%	1.15 µM	160 nM	–	–
CC(CO)(CO)NCc1cc2c3ccccc3c(CNC(C)(CO)CO)cc2c2ccccc12.CS(=O)(=O)O [TCMDC-137752]	–	–	–	–	4420 nM	71.86%	7.33 µM	720 nM	–	–
